The source of these data is ChEMBL document CHEMBL1121589, “Synthesis and biological activities of 5-(hydroxymethyl, azidomethyl, or aminomethyl)-2'-deoxyuridine and related 5'-substituted analogues” (J Med Chem, 1980).

Structures are written as SMILES.

Common to all, as to type: functional
For experiment [1], the system named is Human alphaherpesvirus 1. Kind of experiment: Kinetic inhibition constant against herpes simplex virus type I pyrimidine deoxyribonucleoside kinase was measured.
The subject of experiment [2] is Human alphaherpesvirus 1. Kind of experiment: Antiviral activity against herpes simplex virus type I was measured at 200 uM concentration.
The subject of experiment [3] is Human alphaherpesvirus 1. The experiment is described as follows: Antiviral activity against herpes simplex virus type I was measured at 400 uM concentration.
Experiment [4] in a line: Inhibitory activity against growth of sarcoma 180 cells at 1 uM. The following applies: Mus musculus, read-out: ED50 (the source's name).
In experiment [5] the test system is L1210. Kind of experiment: Compound tested for inhibition of the replication of L1210 cells in cell culture. The following applies: Mus musculus, read-out: ED50 (the source's name).
Experiment [6] has as its system L1210. Kind of experiment: Compound tested for inhibition of the replication of L1210 cells in cell culture at 7 uM. The following applies: Mus musculus.
In experiment [7] the test system is L1210. The experiment is described as follows: Compound tested for inhibition of the replication of L1210 cells in cell culture at 200 uM. The conditions noted are these: Mus musculus.
For experiment [8], the system named is Human alphaherpesvirus 1. Kind of experiment: Antiviral activity against herpes simplex virus type I was measured at 5 uM concentration.

A word on the Ki: it is a measure of affinity in units of concentration, obtained from inhibition or displacement. Low readings indicate a stronger hold on the target, high ones a looser hold on the target. Broadly, the inhibition is the relative decrease from the control value, in per cent. Low values mean a response near the control, high ones a response far below the control.

In the experiment with Human alphaherpesvirus 1 [1], `[N-]=[N+]=NC[C@H]1O[C@@H](n2cc(CO)c(=O)[nH]c2=O)C[C@@H]1O` registered an inhibitory constant (Ki) of 31 µM. For the same compound, the Control with Human alphaherpesvirus 1 [2] is recorded as 100%.

As for `NCc1cn([C@H]2C[C@H](O)[C@@H](CN)O2)c(=O)[nH]c1=O`, the Control in the experiment on Human alphaherpesvirus 1 [3] was determined as 100%. In the experiment with Human alphaherpesvirus 1 [1], the inhibitory constant (Ki) is greater than 500 µM.

Consider `NCc1cn([C@H]2C[C@H](O)[C@@H](CO)O2)c(=O)[nH]c1=O`, for which the Control with Human alphaherpesvirus 1 [3] is recorded as 100%. In the experiment with Human alphaherpesvirus 1 [1], this compound had a Ki of 36 µM. Besides, the EC50 in experiment [4] is 0.16 µM; in the experiment on L1210 [5], 2 µM. The compound further showed an inhibition at 7 µM in the experiment with L1210 [6] of 93%.

As for `[N-]=[N+]=NCc1cn([C@H]2C[C@H](O)[C@@H](CN=[N+]=[N-])O2)c(=O)[nH]c1=O`, in the experiment with Human alphaherpesvirus 1 [3], the Control worked out at 100%. Further, the affinity in the experiment on Human alphaherpesvirus 1 [1] corresponds to a Ki of 62 µM.

In the experiment with Human alphaherpesvirus 1 [3], `NC[C@H]1O[C@@H](n2cc(CO)c(=O)[nH]c2=O)C[C@@H]1O` displayed a Control of 100%. Further, in the experiment with Human alphaherpesvirus 1 [1], the Ki is 530 µM.

In turn, `[N-]=[N+]=NCc1cn([C@H]2C[C@H](O)[C@@H](CO)O2)c(=O)[nH]c1=O` yielded an inhibitory constant (Ki) in the experiment with Human alphaherpesvirus 1 [1] of 0.8 µM. Also, the EC50 in the experiment on L1210 [5] is 90 µM. Besides, the Control in the experiment with Human alphaherpesvirus 1 [2] is reported as 0.5%. For the same compound, the inhibition at 200 µM in the experiment on L1210 [7] was determined as 96%.

The compound `O=c1[nH]c(=O)n([C@H]2C[C@H](O)[C@@H](CO)O2)cc1CO` showed an inhibitory constant (Ki) in the experiment on Human alphaherpesvirus 1 [1] of 3.5 µM. For the same compound, in the experiment with Human alphaherpesvirus 1 [2], the Control was determined as 0.05%.

For `O=c1[nH]c(=O)n([C@H]2C[C@H](O)[C@@H](CO)O2)cc1I` [IDOXURIDINE], the inhibitory constant (Ki) with Human alphaherpesvirus 1 [1] is 0.4 µM. For the same compound, in the experiment on Human alphaherpesvirus 1 [8], the Control is on record as 2%.
